Experimental data as given in the NIST ThermoML archive (doi:10.1007/s10765-009-0579-1).

Assay: xn = mol fraction of the nth substance listed
Settings: 423.15 K, Gas; for viscosity: Oscillating disk viscometry; for mass density: Pycnometric method

CC(F)(F)Cl [1-chloro-1,1-difluoroethane] + FC(F)Cl
Settings	mass density [kg/m3]	viscosity [mPa·s]
102.1 kPa, x2 = 0.2615	2.829	0.01579
102.2 kPa, x2 = 0.5169	2.723	0.01631
346.2 kPa, x2 = 0.5169	9.354	0.01634
390.7 kPa, x2 = 0.7502	10.18	0.01687
394 kPa, x2 = 0.2615	11.13	0.01581
642 kPa, x2 = 0.5169	17.67	0.01639
685.5 kPa, x2 = 0.7502	18.14	0.01697
686.5 kPa, x2 = 0.2615	19.8	0.01588
935.8 kPa, x2 = 0.5169	26.24	0.01646
978.6 kPa, x2 = 0.2615	28.81	0.01594
1026 kPa, x2 = 0.7502	27.65	0.01702
1230 kPa, x2 = 0.5169	35.16	0.01657
1273 kPa, x2 = 0.2615	38.54	0.01604
1368 kPa, x2 = 0.7502	37.56	0.01711
1537 kPa, x2 = 0.5169	44.54	0.01663
1569 kPa, x2 = 0.2615	48.6	0.01618
1706 kPa, x2 = 0.7502	47.76	0.01724
1832 kPa, x2 = 0.5169	54.69	0.01677
1878 kPa, x2 = 0.2615	59.81	0.01632
2055 kPa, x2 = 0.7502	58.73	0.01731
2158 kPa, x2 = 0.2615	70.63	0.0165
2158 kPa, x2 = 0.5169	65.98	0.01694
2415 kPa, x2 = 0.7502	70.79	0.0175
2436 kPa, x2 = 0.2615	81.74	0.01671
2444 kPa, x2 = 0.5169	76.64	0.01711
2719 kPa, x2 = 0.7502	81.34	0.01769
2740 kPa, x2 = 0.5169	88.1	0.01736
2797 kPa, x2 = 0.2615	98.1	0.01703
3055 kPa, x2 = 0.5169	101.2	0.01765
3152 kPa, x2 = 0.2615	115.5	0.01743
3159 kPa, x2 = 0.7502	97.7	0.01797
3389 kPa, x2 = 0.5169	116.1	0.01791
3440 kPa, x2 = 0.2615	131.6	0.01785
3481 kPa, x2 = 0.7502	110.3	0.01829
3680 kPa, x2 = 0.2615	145.8	0.01822
3703 kPa, x2 = 0.5169	131.2	0.0183
3855 kPa, x2 = 0.7502	126.4	0.01863
3921 kPa, x2 = 0.2615	160.9	0.01868
3992 kPa, x2 = 0.5169	146.2	0.01874
4203 kPa, x2 = 0.7502	142	0.01894
4227 kPa, x2 = 0.2615	184.1	0.01939
4325 kPa, x2 = 0.5169	165.2	0.01926
4504 kPa, x2 = 0.2615	207.1	0.02023
4560 kPa, x2 = 0.7502	159.4	0.01947
4634 kPa, x2 = 0.5169	184.7	0.01988
4740 kPa, x2 = 0.2615	230.5	0.0212
4895 kPa, x2 = 0.5169	203.4	0.02048
4897 kPa, x2 = 0.7502	176.4	0.01997
4956 kPa, x2 = 0.2615	254.1	0.0222
5173 kPa, x2 = 0.5169	223.6	0.02124
5183 kPa, x2 = 0.2615	285.1	0.02361
5286 kPa, x2 = 0.2615	294.5	0.02439
5301 kPa, x2 = 0.7502	200.1	0.02057
5380 kPa, x2 = 0.5169	240.7	0.02187
5605 kPa, x2 = 0.7502	219.3	0.02121
5612 kPa, x2 = 0.5169	261.9	0.02295
5795 kPa, x2 = 0.5169	280.3	0.02357
5936 kPa, x2 = 0.7502	242.2	0.02202
6270 kPa, x2 = 0.7502	267.2	0.02299
